Results reported in patent US20110059985A1, “NOVEL FORMULATION” (priority 2007, published 2011).
Where two headings read alike, the source gives them in different places. Marks after values point to notes of the source that are not given here.

Experiments:
[1] = not measured, data according to Neues Rezeptur-Formularium, cited from earlier work
[2] = Abafungin solubility in excipients (Example 1); format: physicochemical
Description: To order to study the solubility of abafungin, abafungin was dissolved in a number of excipients.

[3] = Fungicidal concentrations of abafungin (stated in Example 4); format: cell-based

SMILES: Cc1cc(C2CCCCC2)n(O)c(=O)c1 [Ciclopirox Olamine]
- maximum solubility ([1]; Ethanol gel (NRF 11.84)): ~soluble*^5
- maximum solubility ([1]; Pure ethanol): ~soluble*^5
- maximum solubility ([1]; Pure water): ~1-3%*^5

SMILES: Cc1ccc(Oc2ccccc2-c2csc(N=C3NCCCN3)n2)c(C)c1 [abafungin]
- Not soluble ([2]; excipient: MPEG 550): ✓
- Not soluble ([2]; excipient: MPEG 2000): ✓
- Not soluble ([2]; excipient: PEG 400): ✓
- Not soluble ([2]; excipient: PEG 1500): ✓
- Not soluble ([2]; excipient: PEG 4500): ✓
- Not soluble ([2]; excipient: PEG 6000): ✓
- Not soluble ([2]; excipient: PEG 12000): ✓
- Not soluble ([2]; excipient: PEG 20000): ✓
- Not soluble ([2]; excipient: cetearyl ethylhexanoate (cosmetic oils)): ✓
- Not soluble ([2]; excipient: decyl oleate (cosmetic oils)): ✓
- Not soluble ([2]; excipient: ethanol): ✓
- Not soluble ([2]; excipient: ethanol 70%): ✓
- Not soluble ([2]; excipient: glycerine): ✓
- Not soluble ([2]; excipient: isopropanol): ✓
- Not soluble ([2]; excipient: isopropyl myristate (cosmetic oils)): ✓
- Not soluble ([2]; excipient: isopropyl palmitate (cosmetic oils)): ✓
- Not soluble ([2]; excipient: medium chain triglyceride (cosmetic oils)): ✓
- Not soluble ([2]; excipient: propylene glycol): ✓
- Soluble ([2]; excipient: transcutol): ✓ (3%)
- Not soluble ([2]; excipient: water): ✓
- solubility ([2]; mixture of water, polyethylene glycol, polyethylene glycol monomethyl ether and an acid such as formic acid): soluble
- fungicidal concentrations [3]: 16 to 30 µg/mL
